Patent US4158018A, “3-Oxa carbinol prostaglandin analogs” (Miles Laboratories, Inc., priority 1978, dated 1979)

What was measured:
[1] = test system: Gastric Secretion of the Rat; test: Effects on gastric secretion of the rat (pylorus ligated); assay type: in vivo; conditions: for Gastric Secretion (value judgement, % decrease in acidity): subcutaneous, 2 x 1.5 mg/kg (total 3.0 mg/kg), 4 hours after pyloric ligation
Experimental: Evaluation of the Effects of Prostaglandin Analogues on Gastric Secretion of the Rat
A procedure based on that described by Lipmann (1969) is used to assess the influence of test compound on gastric secretion. Rats of one sex weighing 150 to 200 gm are randomly divided into groups of six animals each and fasted for 48 hours previous to the experiments, water being available ad libitum. The animals are anesthetized with ether, the abdomen opened through a midline incision, and the pylorus ligated. Test compounds are diluted from stock solution so as to administer a dose of 1.5 mg/kg in a volume equivalent to 1 ml/kg. Subcutaneous injections are applied immediately after surgery and again 2 hours later, so that a total dose of 3.0 mg/kg is administered. Dilutions are made with phosphate buffer (pH 7.38) as recommended by Lee et al (1973), in order to insure adequate stability of drugs at the subcutaneous depot. Each compound is tested in one group of rats; an additional control group received only one vehicle.
Four hours after pyloric ligation the animals are killed with ether, the cardias ligated and the stomachs removed. The volume of gastric secretion is measured and the contents centrifuged at 5000 rpm for 10 minutes. Total acid in the supernatant is titrated against a 0.1 N sodium hydroxide solution and the amount expressed in mEq.
Volume and total acid values of the treated group are compared with those of the controls by the test. Antisecretory activity is scored according to the following scale: […]

[2] = test system: Hypertensive Rat; test: Effects on blood pressure in the hypertensive rat (Grollman); assay type: in vivo; parameters: key: 0: Not significant at any time interval; 1: Significant at one time interval; 2: Significant at two time intervals; 3: Significant at three time intervals; 4: Significant at all four time intervals; conditions: intraperitoneal, 1 mc/kg; 2, 4, 6 and 8 hours
Experimental: Evaluation of the Effects of Prostaglandin Analogues on Blood Pressure in the Hypertensive Rat
The acute antihypertensive activity of test compounds is determined in rats made hypertensive by the procedure of Grollman (1944). Female rats weighing between 60 and 100 g are anesthetized with ether, the right kidney approached through a flank retroperitoneal incision, decapsulated and tied with a figure-of-eight ligature. The animals are left to recover and two weeks later are again anesthetized and the contralateral kidney removed. Four weeks after the second operation the rats are subjected to indirect blood pressure measurements and those showing systolic pressure values greater than 160 mmHg are selected for drug testing.
Blood pressure is measured in the tail with an inflatable occluding cuff placed at the base of the extremity and a pulse detector located distally. The cuff is inflated to approximately 300 mmHg and is slowly deflated until pulsations appear, indicating the level of systolic pressure; diastolic pressure is not recorded by this procedure. All measurements are carried out in unanesthetized, unsedated animals maintained in a warm environment during the recording procedure and for at least 6 hours before. In all cases, three pressure readings are obtained in succession and mean values are calculated thereof.
Experiments are carried out in groups of five hypertensive rats in which systolic pressure is determined immediately before and 2, 4, 6 and 8 hours after the intraperitoneal administration of the test compound at a dose of 1 mc/kg. Drugs are diluted from stock solutions with phosphate buffer (Lee et al, 1973), so as to inject this quantity in a volume of 1 ml/kg. Changes from control blood pressure values are calculated for each interval both in mmHg and in percent and evaluated for significance by means of Wilcoxon's signed rank test (Wilcoxon and Wilcox, 1964).

[3] = test system: growth hormone release; conditions: rats; cited from earlier work
[4] = test system: ovarian progesterone secretion; conditions: sheep; cited from earlier work
[5] = test system: thyroid activity; conditions: mice; cited from earlier work
[6] = test system: adrenal glands; conditions: hypophysectomized rats; cited from earlier work
[7] = test system: smooth muscle of the vas deferens; conditions: mammalian male reproductive system; cited from earlier work
[8] = test system: gastric secretion; conditions: dogs; cited from earlier work
[9] = test system: blood platelets; conditions: in vitro; cited from earlier work

| Compound | Gastric Secretion (value judgement, % decrease in acidity) [1] | Blood Pressure Hypertensive Rat (value judgement, blood pressure decrease) [2] | further results |
| --- | --- | --- | --- |
| CCCCC[C@H](O)/C=C/[C@H]1[C@H](O)CC(=O)[C@@H]1CCCCOCCO [TR-4650, 3-oxa-1,11α,15S-trihydroxyprost-13E-en-9-one] | 0 (<26) | 1 |  |
| CCCCC[C@H](O)/C=C/[C@H]1[C@H](CCCCOCCO)C(=O)C[C@@H]1O [TR-4649, 3-oxa-1,11β,15S-trihydroxy-8,12-bisisoprost-13E-en-9-one] | 0 (<26) |  |  |
| CCCCC[C@H](O)/C=C/[C@H]1[C@H](O)CC(=O)[C@@H]1CCCCCCC(=O)O [PGE1, prostaglandin E1] |  |  | release of growth hormone [3]: increases the release of growth hormone; ovarian progesterone secretion [4]: inhibit ovarian progesterone secretion; thyroid activity [5]: increase thyroid activity; stereodogenesis in the adrenal glands [6]: stimulate stereodogenesis in the adrenal glands; contraction of smooth muscle of the vas deferens [7]: contracts the smooth muscle of the vas deferens; gastric secretion [8]: inhibits gastric secretion; aggregation of blood platelets [9]: inhibits aggregation of blood platelets in vitro |
| O=C1CC(O)C(/C=C/[C@H](O)C2CCCCC2)C1CCCCOCCO (stereo partly drawn) [TR-4856, 16,20-methano-3-oxa-1,11α,15R-trihydroxyprost-13E-en-9-one] | 0 (<26) | 2 |  |
| CCCCC(C)(C)[C@H](O)/C=C/[C@H]1[C@H](O)CC(=O)[C@@H]1CCCCOCCO (relative stereo) [TR-4616, ±16,16-dimethyl-3-oxa-1,11α,15R and S-trihydroxyprost-13E-en-9-one] | 2 (26-50, significant) | 0 | inhibition of gastric acid secretion (in words) ([1]; rat, in vivo): inhibit gastric acid secretion |
| CCCCC(C)(C)[C@@H](O)/C=C/[C@H]1[C@H](O)CC(=O)[C@@H]1CCCCOCCO (relative stereo) [TR-4617, ±16,16-dimethyl-3-oxa-1,11α,15R and S-trihydroxyprost-13E-en-9-one] | 0 (<26) | 1 |  |
| 16,20-methano-oxa-1,11β,15R-trihydroxy- 8,12-bisisoprost-13E-en-9-one [TR-4853] | 0 (<26) |  |  |
